{"source": "patent US5739115A", "about": "“Sulfated maltooligosaccharides with heparin-like properties” (Glycomed Incorporated, priority 1994, dated 1998)", "key": {"bFGF": {"system": "bFGF", "test": "Binding of RO-12 UC cells to bFGF coated micro-titer wells", "assay_type": "cell-based, human", "settings": "result in words, FIGS. 1 and 3", "method": "Bound cells are readily quantitated as total protein.\nThe assay was run as follows: Fifty microliters of 10 ug/ml human recombinant bFGF was added to wells of a 96-well tissue culture plate and incubated overnight at 4° C. The wells were aspirated with PBS to remove any unbound bFGF, rinsed twice with PBS, and subsequently incubated with PBS containing 5% (v/v) fetal bovine serum for 1 hour at room temperature. RO-12 UC cells were suspended at a density of 3×10^6 cells/ml in PBS containing 5% fetal bovine serum. To this mixture was added the desired amount of sulfated composition, or heparin. […] Next, 100 ul of the cell suspension was immediately added to the microtiter wells, and incubated for 5 minutes, after which the wells were washed 3 times with PBS. Finally, the amount of cell protein bound to the wells was determined by dissolving the bound cells in 20 ul of 5% SDS and measuring the protein. concentration of the cell lysates. BSA was used as the standard."}, "[1]": {"system": "Bovine smooth muscle cells (SMC)", "test": "Inhibition of smooth muscle cell (SMC) growth", "assay_type": "cell-based", "settings": "for inhibition of SMC growth (anti-proliferative activity): relative to heparin", "source_text": "Maltotetraose, maltopentaose and maltohexaose were sulfated as described in Examples 1-3, and assayed for their effects on smooth muscle cell proliferation using a standard assay for this activity. A convenient assay, in detail, is as follows:\nSolutions to be tested are made up in DMEM medium containing 10% fetal calf serum and penicillin/streptomycin. Bovine smooth muscle cells (SMC) are isolated from bovine aorta by the method of Ross, R., J Cell Biol (1971) 172-186. SMC from passage 3-10 are plated at 350-700 cells per well in 96-well microtiter plates in the medium above and allowed to attach for 2-4 hr. The complete medium is then replaced with DMEM supplemented with 0.1% fetal calf serum, and the cells are incubated for an additional period of about 24 to 72 hr to arrest cell growth. The low-serum medium is then replaced with complete medium containing the test samples. The sulfated maltose oligosaccharides of the invention were added to the medium to make final concentrations as shown in the figures. The effects of heparin at the same concentrations were also determined.\nThe cells are allowed to grow for up to 7 days with replicate plates sampled at regular intervals. Cell number is determined by removing the medium and washing the cells with phosphate-buffered saline, adding 75-150 ul lysis buffer, and assaying for lactate dehydrogenase (LDH) activity, as described by Brandley, B., et at., J Biol Chem (1987) 262:6431. The activity of LDH is proportional to cell number."}, "[2]": {"system": "pericyte and smooth muscle cell", "settings": "literature; result in words; cited from earlier work"}, "[3]": {"system": "basic fibroblast growth factor", "settings": "literature; result in words; cited from earlier work"}, "vascular proliferation": {"system": "vascular proliferation", "settings": "literature; result in words; cited from earlier work"}, "[4]": {"system": "adrenocortical endothelial (ACE) cell line", "test": "Inhibition of bFGF-dependent adrenocortical endothelial (ACE) cell proliferation", "assay_type": "cell-based", "settings": "2 ng/ml bFGF, four days, result in words, FIGS. 2 and 4", "method": "The capacity of the sulfated maltohexaoses to inhibit the proliferation of a bFGF-dependent adrenocortical endothelial (ACE) cell line was determined. This cell line (provided by D. Gospodarowicz, UCSF) requires either aFGF or bFGF for a proliferative response. Cells were seeded at low density in microtiter wells in the presence of 2 ng/ml bFGF, and growth was determined as total protein after four days in the presence of the sulfated maltohexaoses."}, "heparanase": {"system": "heparanase", "test": "Heparanase inhibition, rat hepatoma cell heparanase", "assay_type": "biochemical", "description": "Highly sulfated maltotetraose, Composition 5, Table 2, maltoheptaose and maltose were tested for heparanase inhibitory activity using heparanase from a rat hepatoma cell line. […] Further, their inhibitory activities were compared to porcine mucosal heparin. […] The following procedures and materials were used. Confluent rat hepatoma cell cultures were grown in standard cell culture flasks, and washed 3 times with 10 ml of a 50 mM Hepes solution containing 0.25M sucrose and 0.14M NaCl, pH 7.4. Next, 1 ml of a 50 mM MES buffer, pH 5.2, containing 0.14M NaCl, 6 mM sodium azide, and certain protease inhibitors was added and the cells removed from the flask using a disposable cell scraper. The following protease inhibitors were present in the MES buffer: 0.2 ug/ml aprotinin, 0.5 ug/ml leupeptin, 100 ug/ml soybean trypsin inhibitor, 1 mM PMSF, 2 mM EDTA (sodium salt), and 15 mM D-saccharic acid 1,4 lactone (exoglucuronidase inhibitor).\nThe cells were added to a 7 ml Dounce homogenizer, freezed/thawed 3 times in an ethanol/dry ice bath, and homogenized with 15 strokes using a tight pestle. The resulting cell lysates were placed in a 2 ml centrifuge tube and centrifuged at 4° C. for 30 minutes at 16,000×g. The supernatant was removed, and the protein concentration in the supernatant determined using the Macro BCA protein assay. BSA was used as a standard. Heparanase activity was quantified by measuring soluble N-^3 H-acetylated pancreas heparan sulfate fragments derived from uncleaved N-^3 H-acetylated pancreas heparan sulfate distinguishable by cetylpyridinium chloride (CPC) precipitation. […] The following procedures were used.\nNext, 10 ul of distilled water containing various concentrations of porcine mucosal heparin, or the appropriate highly sulfated maltooligosaccharide, was added. Then, 30 ul of rat hepatoma cell supernatant, isolated as described above, containing 7.5-10 ug of protein in 50mM MES buffer, pH 5.2, containing 0.14M NaCl, 6mM sodium azide and the protease inhibitors described above, is added to siliconized 1.5 ml microcentrifuge tubes. Three to six replicates were run for each concentration of highly sulfated maltotetraose while three replicates were run for each concentration of porcine mucosal heparin. Controls were run to account for background counts.\nThe enzyme substrate inhibitor mixture was mixed, after which the tubes were incubated at 37° C. for 20 minutes. After 20 minutes, the reaction was stopped by adding to the reaction tubes 150 ul of an aqueous heparin solution (0.33 mg/ml). 200 ul of 100 mM sodium acetate pH 5.5 and 100 ul of CPC (0.6% in water) were then added. Three replicates maintained on ice were run as background controls (0 min.) in which the enzyme was added to the tubes immediately followed by heparin to terminate the reaction. […]"}, "[5]": {"system": "chicken chorioallantoic membrane (CAM)", "test": "Chicken chorioallantoic membrane (CAM) assay, angiostatic activity", "assay_type": "in vivo", "source_text": "Compositions that stimulate or inhibit angiogenesis can be identified using several assays known in the art. The chick chorioallantoic membrane (CAM) assay is commonly used. Using the CAM assay, certain heparinoids inhibit angiogenesis when administered with certain steroids. Folkman and Ingber, Ann, Surg. (1987) 206:374, Folkman et at., Science (1983) 221:719.\nCompositions that stimulate or inhibit angiogenesis can be identified using several assays known in the art. Highly sulfated maltotetraose, Composition 5, Table 2, was tested for angiogenesis activity using the chicken chorioallantoic membrane (CAM) assay. The assay was performed as described by Castellot et. at., J. of Cellular Physiology (1986) 127: 323-329, with the exception that samples were evaluated for their efficacy to inhibit neovascularization. Carboxy methyl cellulose pellets containing 50 ug of hydrocortisone, or hydrocortisone plus different amounts of highly sulfated maltotetraose were incubated on the CAM for 3-4 days before scoring the results. Highly sulfated maltotetraose was produced as described in Example 2. Angiostatic activity is defined as a partial clearing or an avascular zone around the pellet. […]"}, "MDA231": {"system": "MDA231", "test": "MDA231 mammary adenocarcinoma tumor growth in nude mice", "assay_type": "in vivo, human tumor in nude mouse", "settings": "for MDA231 tumor growth inhibition: result in words", "method": "(§1) Experiments were conducted to test the efficacy of highly sulfated maltotetraose, Composition 5, Table 2, on tumor growth in an animal model system, the nude mouse. The growth of human tumors in the nude mouse has clinical relevance to the growth of tumors in humans.\n(§2) Three human tumor cell lines were utilized, the mammary adenocarcinoma, MDA231, the pancreatic tumor cell line, CAPAN-2, and the prostatic adenocarcinoma cell line, PC-3. All cell lines are available from the American Type Culture Collection, and grow aggressively in nude mice. The experiments were conducted as follows: female, 15-20 gram nude mice, in groups of ten, were inoculated subcutaneously with 3-5×10^6 viable MDA231, CAPAN-2, or PC-3 cells in 0.1 ml PBS. The cells were grown in standard DMEM tissue culture media supplemented with 10% fetal calf serum in a humidified 5% CO2 incubator at 37° C. The cells were harvested with trypsin-EDTA, washed 2× with PBS, resuspended at a concentration of 3-5×10^7 cells/ml, and placed on ice prior to injection.\nOn a dally basis, the mice were subcutaneously injected with 100 mg/kg of highly sulfated maltotetraose made up in PBS, and produced as described in Example 2. The composition was filter sterilized with a 0.2 um Gelman filter unit.\n(§3) Tumor volume was determined using the following formula: [formula]\nControl mice were injected with PBS vehicle only. Experimental and control mice were injected twice daily with 0.05 ml of the appropriate solution starting on days 0-40 post tumor challenge. From days 41-70 the animals were dosed once daily with 100 mg/kg/day in a volume of 0.1 ml per injection, and tumor volume measured at defined times using standard methods."}, "CAPAN-2": {"system": "CAPAN-2", "test": "CAPAN-2 pancreatic tumor growth in nude mice", "assay_type": "in vivo, human tumor in nude mouse", "settings": "dosed once daily from day 0; result in words", "method": "as §1\nas §2, with “injection. […]” for “injection.”\nas §3\nThe effects of highly satfated maltotetraose on CAPAN-2 tumor cell growth were determined using the materials and methods set forth above with the following exceptions. […]"}, "PC-3": {"system": "PC-3", "test": "PC-3 prostatic adenocarcinoma tumor growth in nude mice", "assay_type": "in vivo, human tumor in nude mouse", "settings": "80 mg/kg/day subcutaneous, 23 days, all time points tested; result in words", "method": "as §1, §2\n[…] The composition was filter sterilized with a 0.2 um Gelman filter unit.\nas §3\nFinally, the effects of highly sulfated maltotetraose on the human prostatic adenocarcinoma line, PC-3, was determined. This cell line is also available from the American Type Culture Collection. […]"}, "[6]": {"settings": "hydrocortisone 50 ug/pellet alone, 24 hr"}, "[7]": {"settings": "listed as highly sulfated maltose"}, "[8]": {"settings": "listed as highly sulfated maltotriose"}}, "data": [{"compound": "heparin", "values": [{"measurement": "inhibition of binding of RO-12 UC cells to bFGF coated wells", "setting": "bFGF", "result": "inhibits RO-12 UC cell binding"}, {"measurement": "concentration that gave 100% inhibition of SMC proliferation", "setting": "[1]; heparin reference", "result": 150, "unit": "µg/mL"}, {"measurement": "inhibition of pericyte and/or smooth muscle cell proliferation", "setting": "[2]", "result": "inhibitor of both pericyte and smooth muscle cell proliferation"}, {"measurement": "binding to basic fibroblast growth factor", "setting": "[3]", "result": "binds heparin quite strongly in vitro"}, {"measurement": "vascular proliferation associated with injury", "setting": "vascular proliferation", "result": "slow or arrest the vascular proliferation"}]}, {"compound": "highly sulfated maltoheptaose [Composition 7]", "values": [{"measurement": "inhibition of binding of RO-12 UC cells to bFGF coated wells", "setting": "bFGF", "result": "significant activity"}, {"measurement": "inhibition of adrenocortical endothelial cell proliferation", "setting": "[4]", "result": "significant activity"}, {"measurement": "heparanase inhibition", "setting": "heparanase; result in words", "result": "as active as heparin"}]}, {"compound": "dermatan sulfate", "values": [{"measurement": "inhibition of pericyte and/or smooth muscle cell proliferation", "setting": "[2]", "result": "do not have this effect"}]}, {"compound": "C[C@]12CCC(=O)C=C1CC[C@@H]1[C@@H]2[C@@H](O)C[C@@]2(C)[C@H]1CC[C@]2(O)C(=O)CO", "note": "[Hydrocortisone, hydrocortisone]", "values": [{"measurement": "number of embryos scored, NO EFFECT", "setting": "[5]; [6]", "result": 27, "unit": "embryos"}, {"measurement": "number of embryos scored, avascular zone (++)", "setting": "[5]; [6]", "result": 0, "unit": "embryos"}, {"measurement": "number of embryos scored, partial clearing (+)", "setting": "[5]; [6]", "result": 2, "unit": "embryos"}]}, {"compound": "chondroitin sulfate", "values": [{"measurement": "inhibition of pericyte and/or smooth muscle cell proliferation", "setting": "[2]", "result": "do not have this effect"}]}, {"compound": "highly sulfated maltose [Composition 9]", "values": [{"measurement": "inhibition of binding of RO-12 UC cells to bFGF coated wells", "setting": "bFGF", "result": "little or no activity relative to the highly sulfated maltotetraose composition"}, {"measurement": "inhibition of binding of RO-12 UC cells to bFGF coated wells", "setting": "bFGF; [7]", "result": "less active"}, {"measurement": "inhibition of adrenocortical endothelial cell proliferation", "setting": "[4]", "result": "little or no activity relative to the highly sulfated maltotetraose composition"}, {"measurement": "inhibition of adrenocortical endothelial cell proliferation", "setting": "[4]; [7]", "result": "less active"}, {"measurement": "heparanase inhibition", "setting": "heparanase; at greater than 200 ug/ml, result in words", "result": "no activity"}]}, {"compound": "highly sulfated maltotetraose [Composition 5]", "values": [{"measurement": "inhibition of binding of RO-12 UC cells to bFGF coated wells", "setting": "bFGF", "result": "significant activity"}, {"measurement": "inhibition of adrenocortical endothelial cell proliferation", "setting": "[4]", "result": "significant activity"}, {"measurement": "MDA231 tumor growth inhibition", "setting": "MDA231; 100 mg/kg subcutaneous", "result": "tumor growth is significantly inhibited"}, {"measurement": "time at which inhibition is first apparent", "setting": "MDA231; MDA231, about", "result": "36 to 37", "unit": "days"}, {"measurement": "tumor volume", "setting": "MDA231; MDA231, days 68-69, control about 375 mm^3", "result": "~125", "unit": "mm^3"}, {"measurement": "MDA231 tumor growth inhibition", "setting": "MDA231; by days 68-69", "result": "dramatic"}, {"measurement": "CAPAN-2 tumor growth inhibition", "setting": "CAPAN-2", "result": "significantly inhibits tumor growth"}, {"measurement": "PC-3 growth inhibition", "setting": "PC-3", "result": "inhibited PC-3 cell growth at all the time points tested"}, {"measurement": "inhibition of SMC growth", "setting": "[1]; 150 ug/ml, result in words", "result": "one hundred per cent inhibition was not observed"}, {"measurement": "inhibition of SMC growth, per cent of heparin inhibition", "setting": "[1]; about 60 ug/ml", "result": "about 50%"}, {"measurement": "inhibition of SMC growth (anti-proliferative activity)", "setting": "[1]; result in words", "result": "significant anti-proliferative effects, although not as great as heparin"}, {"measurement": "angiostatic activity", "setting": "[5]; HSM alone, without hydrocortisone, result in words", "result": "inactive"}, {"measurement": "heparanase IC50", "setting": "heparanase; rat hepatoma heparanase, pH 5.2, 37° C., 20 minutes", "result": 9.0, "unit": "µg/mL"}, {"measurement": "heparanase inhibition relative to porcine mucosal heparin", "setting": "heparanase; result in words, FIG. 11", "result": "approximately one half as effective as porcine mucosal heparin"}]}, {"compound": "heparan sulfate", "values": [{"measurement": "vascular proliferation associated with injury", "setting": "vascular proliferation", "result": "slow or arrest the vascular proliferation"}]}, {"compound": "highly sulfated maltopentaose [Composition 6]", "values": [{"measurement": "inhibition of binding of RO-12 UC cells to bFGF coated wells", "setting": "bFGF", "result": "significant activity"}, {"measurement": "inhibition of adrenocortical endothelial cell proliferation", "setting": "[4]", "result": "significant activity"}, {"measurement": "inhibition of SMC growth, per cent of heparin inhibition", "setting": "[1]; about 50 ug/ml", "result": 100, "unit": "%"}, {"measurement": "inhibition of SMC growth (anti-proliferative activity)", "setting": "[1]; result in words", "result": "more effective in inhibiting SMC proliferation than the smaller-sized sulfated maltotetraose"}]}, {"compound": "highly sulfated maltotriose [Composition 8]", "values": [{"measurement": "inhibition of binding of RO-12 UC cells to bFGF coated wells", "setting": "bFGF; [8]", "result": "less active"}, {"measurement": "inhibition of binding of RO-12 UC cells to bFGF coated wells", "setting": "bFGF; listed as sulfated maltotriose", "result": "little or no activity"}, {"measurement": "inhibition of adrenocortical endothelial cell proliferation", "setting": "[4]; [8]", "result": "less active"}, {"measurement": "inhibition of adrenocortical endothelial cell proliferation", "setting": "[4]; listed as sulfated maltotriose", "result": "little or no activity"}]}]}
